Consider eight molecules from US20250250264A1, “KIF18A INHIBITOR AND USE THEREOF” (Wuhan Humanwell Innovative Drug Research and Development …, priority 2022, published 2025).

Experiment [1] has as its target recombinant protein KIF18A (kinesin domain: aa 1-467) (Homo sapiens (Human), UniProt Q8NI77). The experiment in a line: Assay on inhibition of KIF18A enzymatic activity (ADP-Glo). In kind it is biochemical. The note with it: KIF18A 80 nM, ATP 80 μM, 3 h at room temperature, ADP-Glo luminescence; read-out: IC50 (μM), inhibitory effects of compounds on KIF18A enzymatic activity. From the text: The recombinant protein KIF18A (kinesin domain: aa 1-467) used in this assay was expressed by the Bac-to-Bac baculovirus expression system from Invitrogen, and the resulting protein was purified for use in this assay (Seki, M. et al. 2003 Nucleic Acids Res.). Quantitative detection of KIF18A enzymatic activity was completed using an ADP-Glo™ kinase assay kit (Promega Inc). Related procedures strictly followed the product instructions, which are briefly described as follows:
The reaction system consisted of a test compound, the recombinant protein KIF18A (aa 1-467), ATP (Promega Inc), and an assay buffer. The test compound was prepared into a 0.5 mM stock solution using DMSO (Sigma Inc) and then serially diluted in DMSO. The assay buffer consisted of an aqueous solution of 15 mM Tris, 10 mM MgCl2 (Sigma Inc), 0.01% Pluronic F-68 (Life Technologies Inc), 1 μM paclitaxel (Cytoskeleton Inc), 30 μg/mL porcine tubulin (Cytoskeleton Inc), and 2% DMSO. The KIF18A protein (final concentration: 80 nM) and the compound at different concentrations (1 μL) were added to the prepared assay buffer (50 μL), and the mixture was incubated at room temperature for 15 min. Then, ATP (final concentration: 80 μM) was added to the reaction mixture, and the resulting mixture was incubated at room temperature for 3 h. After the reaction was completed, 5 μL of the ADP-Glo™ reagent and 2.5 μL of the reaction mixture were added to a 384-well plate (Grenier Inc). The resulting mixture was mixed homogeneously, then sealed by an aluminum foil sealing film, and incubated at room temperature in the dark for 40 min. Finally, 10 μL of the […] was added to each reaction well, and the mixture was incubated at room temperature in the dark for 40 min. After all reactions were completed, the luminescence values of the wells were read on a microplate reader (Molecular Device_SpectraMax Id5), and the inhibition ratios were calculated. The calculation formula for the inhibition rates was as follows: inhibition rate=(1−(compound group−blank group)/(negative control group−blank group))×100%. Then, based on the inhibition rates at different compound concentrations, the IC50 value of the test compound was calculated using the GraphPad Prism 8 software.
Background: ADP-Glo first removes unused ATP, then detects ADP through luciferase.

In another experiment the test system is NIH:OVCAR-3 cells. Put plainly: Assay on inhibition of OVCAR3 tumor cell proliferation (CellTiter-Glo). In kind it is cell-based. The settings on record: Homo sapiens, OVCAR-3, 72 h, 3 days of drug treatment, read-out: IC50 (μM), inhibitory effects of compounds on tumor cell proliferation. The method, then: NIH:OVCAR-3 cells (ATCC, Cat No. HTB-161, purchased from Co-Bier) were seeded into a T75 culture flask and cultured in an RPMI 1640 medium containing 20% FBS for 3 days in preparation for subsequent culturing and seeding into a 96-well plate for the cell proliferation assay.
The OVCAR3 cells were seeded at a density of 3000 cells/100 μL/well into the 96-well cell plate, and then the plate was incubated in an incubator (37° C., 5% CO2) for 18 h. On the second day, drug treatment was started. Serially diluted test compound solutions (each drug starting at a concentration of 10 μM, diluted in DMSO, with a dilution ratio of 1:3, and nine gradient points for each drug) or DMSO (negative control) was added to the medium in the plate at 100 μL/well, and a blank group was set up with only medium, but no seeded cell strains. After the drug addition, the plate was incubated in the incubator for another 3 days (37° C., 5% CO2). On the fourth day, plate detection was performed. To each well, 100 μL of CellTiter-Glo reagent (Promega G9243) was added. The plate was shaken for 5 min and then left to stand at room temperature for 5 min. The chemical luminescence signal value of each well was determined using a microplate reader (PerkinElmer EnVision®2104). Cell proliferation inhibition rate=(1−(compound group−blank group)/(DMSO group−blank group))×100%. Then, the IC50 value of each compound was calculated using the GraphPad Prism 8 software.

Chain of recombinant protein KIF18A (kinesin domain: aa 1-467) (Q8NI77 1-467): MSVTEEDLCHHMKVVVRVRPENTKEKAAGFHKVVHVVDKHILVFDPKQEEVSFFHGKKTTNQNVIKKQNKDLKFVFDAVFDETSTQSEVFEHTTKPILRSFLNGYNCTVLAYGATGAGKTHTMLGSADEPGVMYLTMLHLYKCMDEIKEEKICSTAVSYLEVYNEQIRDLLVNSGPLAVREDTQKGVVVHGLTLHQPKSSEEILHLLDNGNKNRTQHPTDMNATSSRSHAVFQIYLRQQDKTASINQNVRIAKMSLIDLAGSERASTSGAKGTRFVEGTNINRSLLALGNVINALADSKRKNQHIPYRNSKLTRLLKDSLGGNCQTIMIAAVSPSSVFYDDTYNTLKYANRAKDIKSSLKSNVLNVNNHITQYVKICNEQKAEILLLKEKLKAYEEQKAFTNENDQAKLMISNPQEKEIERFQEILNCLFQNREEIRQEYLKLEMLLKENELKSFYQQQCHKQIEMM
Chain of recombinant protein KIF18A (kinesin domain: aa 1-467) (P02550 whole entry partner, the tested form may be a part): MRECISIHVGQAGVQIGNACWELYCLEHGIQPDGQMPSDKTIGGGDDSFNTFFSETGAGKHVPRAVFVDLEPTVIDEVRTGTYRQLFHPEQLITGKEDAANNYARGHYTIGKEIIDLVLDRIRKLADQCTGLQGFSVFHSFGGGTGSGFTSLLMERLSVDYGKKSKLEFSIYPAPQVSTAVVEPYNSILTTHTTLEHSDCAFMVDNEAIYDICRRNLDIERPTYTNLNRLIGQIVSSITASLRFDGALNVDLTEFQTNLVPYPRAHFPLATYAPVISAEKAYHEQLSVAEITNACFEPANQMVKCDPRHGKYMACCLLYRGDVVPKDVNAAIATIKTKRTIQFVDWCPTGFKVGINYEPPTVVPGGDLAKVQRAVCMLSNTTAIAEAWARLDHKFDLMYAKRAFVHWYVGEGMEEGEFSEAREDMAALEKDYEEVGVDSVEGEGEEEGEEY
Chain of recombinant protein KIF18A (kinesin domain: aa 1-467) (P02554 whole entry partner, the tested form may be a part): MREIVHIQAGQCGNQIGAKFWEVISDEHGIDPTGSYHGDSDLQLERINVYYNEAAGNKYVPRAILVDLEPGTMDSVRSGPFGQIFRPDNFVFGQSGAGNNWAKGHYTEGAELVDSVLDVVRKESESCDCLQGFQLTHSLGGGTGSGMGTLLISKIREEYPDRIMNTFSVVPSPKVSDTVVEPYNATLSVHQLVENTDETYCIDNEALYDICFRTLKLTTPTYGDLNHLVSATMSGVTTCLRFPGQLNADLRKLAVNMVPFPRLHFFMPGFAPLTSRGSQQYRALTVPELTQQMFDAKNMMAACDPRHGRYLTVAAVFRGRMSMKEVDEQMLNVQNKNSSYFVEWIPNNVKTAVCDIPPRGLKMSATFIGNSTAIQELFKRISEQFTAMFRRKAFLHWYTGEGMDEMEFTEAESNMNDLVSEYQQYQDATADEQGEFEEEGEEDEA

Turning to `Cc1cc(-c2nnc(-c3ccc(NS(=O)(=O)CCO)cc3N3CCC4(CC3)CC4)o2)nc(N2C[C@@H](F)[C@@H](F)C2)n1` [Example I-101, N-(4-(5-(2-((3S,4R)-3,4-Difluoropyrrolidin-1-yl)-6-methylpyrimidin-4-yl)-1,3,4-oxadiazol-2-yl)-3-(6-azaspiro[2.5]octan-6-yl)phenyl)-2-hydroxyethane-1-sulfonamide], the values for the IC50 (in experiment [1]; in the experiment on NIH:OVCAR-3 cells) were 0.008 µM and 0.26 µM, respectively.
The corresponding values for `Cc1cc(-c2nnc(-c3ccc(NS(=O)(=O)CCO)cc3N3CCC4(CC3)CC4)o2)nc(N2CCCC(F)C2)n1` (stereo not shown) [Example I-102, N-(4-(5-(2-(3-Fluoropiperidin-1-yl)-6-methylpyrimidin-4-yl)-1,3,4-oxadiazol-2-yl)-3-(6-azaspiro[2.5]octan-6-yl)phenyl)-2-hydroxyethane-1-sulfonamide] are 0.004 µM and 0.144 µM.
The corresponding values for `O=S(=O)(CCO)Nc1ccc(-n2cc(-c3ccnc(N4CCC(F)(F)CC4)n3)cn2)c(N2CCC3(CC2)CC3)c1` [Example I-109, N-(4-(4-(2-(4,4-Difluoropiperidin-1-yl)pyrimidin-4-yl)-1H-pyrazol-1-yl)-3-(6-azaspiro[2.5]octan-6-yl)phenyl)-2-hydroxyethane-1-sulfonamide] are 0.005 µM and 0.066 µM.
The corresponding values for `Cc1cc(-c2nnc(-c3ccc(NS(=O)(=O)CCO)cc3N3CCC4(CC3)CC4)o2)nc(N2CC(F)(F)CC(F)(F)C2)n1` [Example I-100, N-(4-(5-(6-Methyl-2-(3,3,5,5-tetrafluoropiperidin-1-yl)pyrimidin-4-yl)-1,3,4-oxadiazol-2-yl)-3-(6-azaspiro[2.5]octan-6-yl)phenyl)-2-hydroxyethane-1-sulfonamide] are 0.01 µM and 0.115 µM.
Turning to `Cc1cc(-c2cnn(-c3ccc(NS(=O)(=O)[C@@H](C)CO)cc3N3CCC4(CC3)CC4)c2)nc(N2CCC(F)(F)CC2)n1` [Example I-112, (S)—N-(4-(4-(2-(4,4-Difluoropiperidin-1-yl)-6-methylpyrimidin-4-yl)-1H-pyrazol-1-yl)-3-(6-azaspiro[2.5]octan-6-yl)phenyl)-1-hydroxypropane-2-sulfonamide], the IC50 in experiment [1] was 0.002 µM; in the experiment with NIH:OVCAR-3 cells, 0.107 µM.
Consider `Cc1cc(-c2nnc(-c3ccc(NS(=O)(=O)CCO)cc3N3CCC4(CC3)CC4)s2)nc(N2CCCC(F)(F)C2)n1` [Example I-85, N-(4-(5-(2-(3,3-Difluoropiperidin-1-yl)-6-methylpyrimidin-4-yl)-1,3,4-thiadiazol-2-yl)-3-(6-azaspiro[2.5]octan-6-yl)phenyl)-2-hydroxyethane-1-sulfonamide], for which the IC50 in experiment [1] stood at 0.022 µM; in the experiment on NIH:OVCAR-3 cells, 0.284 µM.
The like results for `Cc1cc(-c2cnn(-c3ccc(NS(=O)(=O)[C@H](C)CO)cc3N3CCC4(CC3)CC4)c2)nc(N2CCC(F)(F)CC2)n1` [Example I-111, (R)—N-(4-(4-(2-(4,4-Difluoropiperidin-1-yl)-6-methylpyrimidin-4-yl)-1H-pyrazol-1-yl)-3-(6-azaspiro[2.5]octan-6-yl)phenyl)-1-hydroxypropane-2-sulfonamide] were, in that order, 0.005 µM and 0.073 µM.
The corresponding values for `Cc1cc(-c2nnc(-c3ccc(NS(=O)(=O)CCO)cc3N3CCC4(CC3)CC4)o2)nc(N2CC3CC3C2)n1` (stereo not shown) [Example I-86, N-(4-(5-(2-(3-azabicyclo[3.1.0]hexan-3-yl)-6-methylpyrimidin-4-yl)-1,3,4-oxadiazol-2-yl)-3-(6-azaspiro[2.5]octan-6-yl)phenyl)-2-hydroxyethane-1-sulfonamide] are 0.003 µM and 0.07 µM.
